Columns and labels:
MOZ-KAT6A [1] = molecular target: T1, MOZ-KAT6A (Homo sapiens, UniProt Q92794, A567V); test: Acetyltransferase biochemical assay (AlphaScreen), KAT6A; conditions: Table 2 (MOZ-KAT6A); 10 μM Acetyl coenzyme A, histone H3.1, 5 nM enzyme
T1 construct: encoding amino acid residues 507 to 778 (Uniprot Q92794-1) of human KAT6A; made in house; host or cells: E. coli BL21 DE3

MOF-KAT8 [2] = molecular target: T2, MOF-KAT8 (Homo sapiens, UniProt Q9H7Z6); test: Acetyltransferase biochemical assay (AlphaScreen), KAT8; conditions: Table 4 (MOF-KAT8); 0.4 μM Acetyl coenzyme A, histone H4, 20 nM enzyme
T2 sequence (Q9H7Z6 177-447): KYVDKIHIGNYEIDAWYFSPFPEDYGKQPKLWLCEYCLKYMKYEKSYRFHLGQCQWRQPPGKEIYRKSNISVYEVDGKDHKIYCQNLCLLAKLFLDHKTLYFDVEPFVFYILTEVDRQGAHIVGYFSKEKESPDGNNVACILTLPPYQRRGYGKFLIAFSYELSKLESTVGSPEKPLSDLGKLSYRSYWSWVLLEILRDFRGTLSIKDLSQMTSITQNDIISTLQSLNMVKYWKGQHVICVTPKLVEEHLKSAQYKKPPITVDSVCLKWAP

TIP60-KAT5 [3] = molecular target: T3, TIP60-KAT5 (Homo sapiens, UniProt Q92993); test: Acetyltransferase biochemical assay (AlphaScreen), KAT5; conditions: Table 1 (TIP60-KAT5); 0.4 μM Acetyl coenzyme A, histone H4, 10 nM enzyme
T3 construct: encoding amino acid residues 2 to 461 (Uniprot Q92993-2) of human KAT5 isoform; made in house; host or cells: E. coli BL21 DE3

HBO-KAT7 [4] = molecular target: T4, HBO-KAT7 (Homo sapiens, UniProt O95251); test: Acetyltransferase biochemical assay (AlphaScreen), KAT7; conditions: Table 3 (HBO-KAT7); 0.4 μM Acetyl coenzyme A, histone H3.1, 40 nM enzyme
T4 construct: encoding amino acid residues 325 to 611 (Uniprot 095251-1) of human KAT7; made in house; host or cells: E. coli BL21 DE3 RIL

[5] = system: histone H2A.Z Lysine 7 acetylation (TIP60 mediated) in U2OS cells; test: H2A.Z Lysine 7 Acetylation Biomarker Assay (96 well, U2OS); assay type: cell-based; conditions: Table 7, H2A.Z K7ac, 24 hours incubation, serum free medium
Experimental: To discover a global TIP60/KAT5 cellular biomarker useful for monitoring PD responses of TIP60 inhibition in vitro and in vivo, various histone modifications were assessed for TIP60 dependence through genetic (TIP60 siRNA and CRISPR/Cas9) or TIP60 pharmacological inhibition. This analysis clearly identified acetylation of the histone variant H2A.Z at Lysine 7 (H2A.ZK7ac) as a global histone mark which is TIP60-dependent in both human and mouse cells. To a lesser extent, TIP60 also acetylated lysine 4 and 11 of H2A.Z.
Compounds may be tested for their ability to inhibit the histone H2A.Z Lysine 7 acetylation biomarker (which is TIP60 mediated) in the following assay:
(§1) The cell line U2OS was seeded at a density of 9,000 cells per well in 96 well optical quality tissue culture plates in RPMI medium and 10% foetal bovine serum, and allowed to adhere for 24 hours under standard culture conditions (37 degree Celsius, 5% CO2). At the end of this period the cells were washed with serum free medium. Compound dilutions prepared in DMSO were added to the serum free medium, with negative control wells reserved for treatment with DMSO only and positive controls receiving a potent inhibitor compound (e.g. Example 146) at 20 μM concentration. After incubation for 24 hours, the cells were fixed with 3.7% formaldehyde in PBS for 20 minutes at room temperature, washed with phosphate buffer saline containing 0.1% Tween 20 and blocked with Odyssey blocking buffer (LI-COR, Lincoln, Nebr.) containing 0.1% TritonX100. Anti-H2A.Z K7ac specific antibody (Abcam) in Odyssey blocking buffer containing 0.1% Tween 20 was added and incubated for 14 hours at 4 degree Celsius. After washing, a secondary antibody labelled with Alexa647 dye (LifeTechnologies) and Hoechst 33342 (10 μM, SigmaAldrich) were added for 1 hour incubation. Plates were washed and read on a PerkinElmer Phenix high content imaging platform. Using a Columbus image analysis pipeline, individual nuclei were located by Hoechst 33342 stain and the acetylation level was calculated from the Alexa647-related intensity in the same area. The resulting mean intensity per cell was directly converted to percent inhibition relative to controls on the same plate and the data fitted against a four-parameter logistic model to determine the 50% inhibitory concentration (IC50).

[6] = system: histone H3K14 acetylation (HBO1 mediated) in U2OS cells; test: Histone H3 Lysine 14 Acetylation Biomarker Assay (96 well, U2OS); assay type: cell-based; conditions: Table 6, H3K14ac, 24 hours incubation, serum free medium
Experimental: Compounds may be tested for their ability to inhibit acetylation of the histone H3K14 marker (which is HBO1 mediated) in the following assay:
as §1, with “of 12,000” for “of 9,000”, “Example 36 in WO2016/198507)” for “Example 146)”, “at 10” for “at 20”, “TritonX100. Anti-H3K14ac” for “TritonX100. Anti-H2A.Z K7ac”, “antibody (Cell Signalling Technologies)” for “antibody (Abcam)”, “33342 (1 μg/mL,” for “33342 (10 μM,”

HBO-KAT7 [7] = molecular target: T4, HBO-KAT7; test: Revised Acetyltransferase Biochemical Assay, KAT7; conditions: Table 9 (HBO-KAT7), 1 μM Acetyl coenzyme A
TIP60-KAT5 [8] = molecular target: T3, TIP60-KAT5; test: Revised Acetyltransferase Biochemical Assay, KAT5; conditions: 10 nM KAT5, 1 μM AcCoA, 100 nM histone H4, 90 min
MOZ-KAT6A [9] = molecular target: T1, MOZ-KAT6A; test: Revised Acetyltransferase Biochemical Assay, KAT6A; conditions: Table 8 (MOZ-KAT6A), 1 μM Acetyl coenzyme A
MOF-KAT8 [10] = molecular target: T2, MOF-KAT8; test: Revised Acetyltransferase Biochemical Assay, KAT8; conditions: read-out: IC50 (MOF-KAT8); Revised acetyltransferase biochemical assay; 20 nM KAT8, 1 μM AcCoA, 100 nM histone H4, 90 min
[11] = system: histone H3K23 acetylation (KATE mediated) in U2OS cells; test: Histone H3 Lysine 23 Acetylation Biomarker Assay (U2OS); assay type: cell-based; conditions: 96 well, 24 hours incubation
Summary of the method: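 U2OS cells were treated with compound for 24 h, then fixed and immunostained for H3K23ac with Hoechst nuclear counterstain. Per-nucleus Alexa647 intensity was quantified by high-content imaging and converted to % inhibition against DMSO and 10 μM reference-inhibitor controls. IC50 was derived from a four-parameter logistic fit.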

QKF-KAT6B [12] = molecular target: T5, QKF-KAT6B (Homo sapiens, UniProt Q8WYB5); test: Revised Acetyltransferase Biochemical Assay, KAT6B; conditions: 8 nM KAT6B, 1 μM AcCoA, 100 nM histone H3.1, 90 min
T5 construct: purchased SignalChem K315-381BG
Source text: KAT6B was obtained from SignalChem, catalog ID: K315-381BG

QKF-KAT6B [13] = molecular target: T5, QKF-KAT6B; test: Acetyltransferase biochemical assay (AlphaScreen), KAT6B; conditions: Table 5 (QKF-KAT6B); 0.4 μM Acetyl coenzyme A, histone H3.1, 8 nM enzyme

T1 sequence (Q92794 507-778 A567V limits assumed): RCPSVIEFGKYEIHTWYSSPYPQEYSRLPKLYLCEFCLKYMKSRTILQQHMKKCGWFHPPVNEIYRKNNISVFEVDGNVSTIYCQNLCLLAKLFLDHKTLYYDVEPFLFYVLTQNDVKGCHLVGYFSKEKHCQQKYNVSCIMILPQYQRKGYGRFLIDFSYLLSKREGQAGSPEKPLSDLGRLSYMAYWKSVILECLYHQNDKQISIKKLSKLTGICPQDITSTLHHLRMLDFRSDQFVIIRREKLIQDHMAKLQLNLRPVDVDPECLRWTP
T4 sequence (O95251 with tags, fused parts or gaps): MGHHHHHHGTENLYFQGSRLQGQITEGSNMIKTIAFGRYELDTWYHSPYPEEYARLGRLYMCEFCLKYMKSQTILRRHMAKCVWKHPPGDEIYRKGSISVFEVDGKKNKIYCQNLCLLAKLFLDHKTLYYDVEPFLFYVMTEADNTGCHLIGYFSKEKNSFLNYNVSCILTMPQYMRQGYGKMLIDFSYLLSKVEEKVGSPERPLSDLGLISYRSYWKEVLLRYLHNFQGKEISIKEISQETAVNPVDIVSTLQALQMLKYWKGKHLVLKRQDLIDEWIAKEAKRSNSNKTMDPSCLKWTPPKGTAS
T3 sequence (Q92993 2-461 isoform Q92993-2): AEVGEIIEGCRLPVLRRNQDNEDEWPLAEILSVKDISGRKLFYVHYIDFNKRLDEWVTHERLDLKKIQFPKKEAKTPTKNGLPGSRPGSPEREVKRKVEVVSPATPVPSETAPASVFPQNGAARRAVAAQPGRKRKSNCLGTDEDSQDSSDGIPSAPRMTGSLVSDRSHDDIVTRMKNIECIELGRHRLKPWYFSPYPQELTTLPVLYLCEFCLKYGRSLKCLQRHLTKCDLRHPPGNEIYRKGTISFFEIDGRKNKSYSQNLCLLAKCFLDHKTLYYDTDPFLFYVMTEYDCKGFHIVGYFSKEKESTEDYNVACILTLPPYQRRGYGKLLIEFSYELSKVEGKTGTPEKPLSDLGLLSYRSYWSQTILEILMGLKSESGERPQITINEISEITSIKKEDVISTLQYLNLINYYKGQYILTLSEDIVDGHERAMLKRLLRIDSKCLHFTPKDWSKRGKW
T5 sequence (Q8WYB5 whole entry): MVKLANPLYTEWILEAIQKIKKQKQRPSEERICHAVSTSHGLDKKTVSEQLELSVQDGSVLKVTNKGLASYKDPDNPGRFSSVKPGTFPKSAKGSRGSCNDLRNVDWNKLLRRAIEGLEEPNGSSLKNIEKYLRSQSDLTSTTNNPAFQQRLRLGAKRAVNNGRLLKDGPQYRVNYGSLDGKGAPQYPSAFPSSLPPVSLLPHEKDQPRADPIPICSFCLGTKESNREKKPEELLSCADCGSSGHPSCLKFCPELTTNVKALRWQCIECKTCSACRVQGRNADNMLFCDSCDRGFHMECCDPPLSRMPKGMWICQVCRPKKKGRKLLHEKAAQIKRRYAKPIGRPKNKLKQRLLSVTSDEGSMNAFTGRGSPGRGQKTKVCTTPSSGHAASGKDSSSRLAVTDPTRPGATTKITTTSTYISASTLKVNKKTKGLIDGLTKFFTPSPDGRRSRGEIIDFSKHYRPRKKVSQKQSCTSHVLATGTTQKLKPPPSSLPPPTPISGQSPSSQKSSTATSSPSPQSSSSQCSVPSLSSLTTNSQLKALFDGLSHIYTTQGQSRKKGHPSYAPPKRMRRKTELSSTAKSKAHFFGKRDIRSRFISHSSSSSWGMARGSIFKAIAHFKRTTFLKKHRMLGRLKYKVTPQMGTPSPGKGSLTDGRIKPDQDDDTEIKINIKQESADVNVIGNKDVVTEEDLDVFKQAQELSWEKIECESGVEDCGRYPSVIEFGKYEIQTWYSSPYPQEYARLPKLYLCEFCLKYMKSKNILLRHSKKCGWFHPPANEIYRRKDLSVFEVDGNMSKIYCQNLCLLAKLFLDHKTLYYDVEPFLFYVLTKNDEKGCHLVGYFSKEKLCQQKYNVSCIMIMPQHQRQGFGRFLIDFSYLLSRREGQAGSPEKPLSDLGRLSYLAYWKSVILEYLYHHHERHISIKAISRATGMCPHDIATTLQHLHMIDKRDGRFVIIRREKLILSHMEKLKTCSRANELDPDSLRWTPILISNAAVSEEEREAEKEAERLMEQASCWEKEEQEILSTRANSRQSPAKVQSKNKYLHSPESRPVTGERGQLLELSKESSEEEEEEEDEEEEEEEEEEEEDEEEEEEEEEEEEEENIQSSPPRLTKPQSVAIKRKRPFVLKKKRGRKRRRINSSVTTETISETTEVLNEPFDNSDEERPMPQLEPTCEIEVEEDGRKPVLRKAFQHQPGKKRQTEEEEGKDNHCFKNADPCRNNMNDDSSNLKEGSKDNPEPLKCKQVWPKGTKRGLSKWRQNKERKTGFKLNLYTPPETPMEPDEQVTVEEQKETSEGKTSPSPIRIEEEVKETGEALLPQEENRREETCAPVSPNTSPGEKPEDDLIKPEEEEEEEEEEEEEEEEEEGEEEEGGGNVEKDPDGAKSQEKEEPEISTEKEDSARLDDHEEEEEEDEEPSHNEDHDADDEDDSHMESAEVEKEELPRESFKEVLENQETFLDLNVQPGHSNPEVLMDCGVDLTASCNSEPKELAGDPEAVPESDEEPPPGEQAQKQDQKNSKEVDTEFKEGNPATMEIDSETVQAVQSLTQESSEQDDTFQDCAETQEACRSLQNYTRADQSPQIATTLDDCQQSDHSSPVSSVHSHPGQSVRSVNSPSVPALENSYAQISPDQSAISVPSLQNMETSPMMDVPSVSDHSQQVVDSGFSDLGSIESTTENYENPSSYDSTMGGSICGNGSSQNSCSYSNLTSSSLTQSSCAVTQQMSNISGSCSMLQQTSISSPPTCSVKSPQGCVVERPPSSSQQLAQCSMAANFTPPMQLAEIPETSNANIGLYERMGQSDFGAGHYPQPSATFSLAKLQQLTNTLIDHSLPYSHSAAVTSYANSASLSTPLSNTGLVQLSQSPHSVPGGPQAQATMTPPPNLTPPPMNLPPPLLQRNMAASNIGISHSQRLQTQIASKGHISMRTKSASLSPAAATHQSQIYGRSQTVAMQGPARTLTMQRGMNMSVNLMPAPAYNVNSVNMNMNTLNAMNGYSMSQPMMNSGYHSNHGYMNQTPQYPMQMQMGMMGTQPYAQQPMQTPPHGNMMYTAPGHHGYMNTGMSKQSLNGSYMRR

| SMILES | IC50 (MOZ-KAT6A [1]) [µM] | IC50 (MOF-KAT8 [2]) [µM] | IC50 (TIP60-KAT5 [3]) [µM] | IC50 (HBO-KAT7 [4]) [µM] | IC50 ([5]; Homo sapiens) [µM] | IC50 [6] [µM] | IC50 [5] [µM] | IC50 (HBO-KAT7 [7]) [µM] | IC50 (TIP60-KAT5 [8]) [µM] | IC50 (MOZ-KAT6A [9]) [µM] | IC50 (MOF-KAT8 [10]) [µM] | IC50 [11] [µM] | IC50 (QKF-KAT6B [12]) [µM] | IC50 (QKF-KAT6B [13]) [µM] | IC50 ([11]; Homo sapiens, U2OS, 24 h) [µM] | IC50 ([5]; Homo sapiens, 24 h) [µM] | IC50 ([6]; Homo sapiens, 24 h) [µM] |
| --- | --- | --- | --- | --- | --- | --- | --- | --- | --- | --- | --- | --- | --- | --- | --- | --- | --- |
| O=C(NCC(c1ccccc1)c1ncco1)C1=Nc2ccccc2S(=O)(=O)N1 (single isomer, unassigned) [Example 137] | 0.107 | 100 | 3.08 | 0.913 | 10 | 2.45 |  |  |  |  |  |  |  |  |  |  |  |
| O=C(NCC(c1ccccc1)c1ncco1)C1=Nc2ccc(Br)cc2S(=O)(=O)N1 (single isomer, unassigned) [Example 138] |  | 8.07 | 0.0952 | 0.234 |  | 0.145 | 1.46 |  |  |  |  |  |  |  |  |  |  |
| Cn1cc(-c2ccc3c(c2)S(=O)(=O)NC(C(=O)NCC(c2ccccc2)c2ccccc2)=N3)cn1 [Example 18, N-(2,2-diphenylethyl)-7-(1-methyl-1H-pyrazol-4-yl)-2H-benzo[e][1,2,4]thiadiazine-3-carboxamide 1,1-dioxide] | 3.12 |  | > 125 |  |  |  |  |  |  |  |  |  |  | 0.268 |  |  |  |
| COc1cccc(CCNC(=O)C2=Nc3ccc(I)cc3S(=O)(=O)N2)c1 [Example 101] | 10.2 |  | > 125 | > 125 | 30 |  |  |  |  |  |  |  |  |  |  |  | 30 |

Second part, the compound after the results:

| IC50 (MOZ-KAT6A [1]) [µM] | IC50 (MOF-KAT8 [2]) [µM] | IC50 (TIP60-KAT5 [3]) [µM] | IC50 (HBO-KAT7 [4]) [µM] | IC50 ([5]; Homo sapiens) [µM] | IC50 [6] [µM] | IC50 [5] [µM] | IC50 (HBO-KAT7 [7]) [µM] | IC50 (TIP60-KAT5 [8]) [µM] | IC50 (MOZ-KAT6A [9]) [µM] | IC50 (MOF-KAT8 [10]) [µM] | IC50 [11] [µM] | IC50 (QKF-KAT6B [12]) [µM] | IC50 (QKF-KAT6B [13]) [µM] | IC50 ([11]; Homo sapiens, U2OS, 24 h) [µM] | IC50 ([5]; Homo sapiens, 24 h) [µM] | IC50 ([6]; Homo sapiens, 24 h) [µM] | SMILES |
| --- | --- | --- | --- | --- | --- | --- | --- | --- | --- | --- | --- | --- | --- | --- | --- | --- | --- |
| 0.464 | 19.1 | 1.3 | 0.0615 |  | 0.263 | 5.05 | 0.184 | 0.707 | 0.1 | 75.8 |  |  |  |  |  |  | O=C(NCC(c1ccccc1)c1ncco1)C1=Nc2ccc(Br)cc2S(=O)(=O)N1 (single isomer, unassigned) [Example 139] |
| 0.0259 |  | 0.0468 | 0.16 |  | 0.429 | 0.447 | 0.036 | 0.013 | 0.002 |  | 0.016 | 0.019 |  |  |  |  | O=C(NCC(c1ccccc1)c1ncco1)C1=Nc2ccc(I)cc2S(=O)(=O)N1 (single isomer, unassigned) [Example 146, 7-iodo-N-(2-(oxazol-2-yl)-2-phenylethyl)-2H-benzo[e][1,2,4]thiadiazine-3-carboxamide 1,1-dioxide] |
| 0.645 |  | 0.445 | 0.167 |  | 0.193 | 1.43 | 0.057 | 0.132 | 0.029 |  | 0.482 | 0.311 |  |  |  |  | O=C(NCC(c1ccccc1)c1ncco1)C1=Nc2ccc(I)cc2S(=O)(=O)N1 (single isomer, unassigned) [Example 147] |
| 0.0179 |  | 0.0613 | 0.0944 |  |  |  | 0.059 | 0.032 | 0.005 |  |  | 0.028 |  | 0.035 | 1 | 0.0861 | O=C(NCC(c1ccccc1)c1ncco1)C1=Nc2ccc(I)cc2S(=O)(=O)N1 (centres unmarked) [Example 41, 7-iodo-N-(2-(oxazol-2-yl)-2-phenylethyl)-2H-benzo[e][1,2,4]thiadiazine-3-carboxamide 1,1-dioxide] |

— patent US20210380548A1, “Fused [1,2,4]Thiadiazine Derivatives Which Act as KAT Inhibitors of the MYST Family” (CTxT Pty Limited, priority 2017, published 2021)
